Results reported in patent US9096593B2, “Compounds and methods for kinase modulation, and indications therefor” (Plexxikon Inc., priority 2009, dated 2015).

Experiments:
[1] = Turbidity assay of relative solubility in aqueous buffers; type: physicochemical; conditions: for turbidity threshold (L, M, H) 1.4: pH 1.4 as headed (method: SGF pH 1.5); for turbidity threshold (L, M, H) 4.5: pH 4.5 (SIF); for turbidity threshold (L, M, H) 6.8: pH 6.8 (SIF); for turbidity threshold (L, M, H) 7.4: pH 7.4 (HEPES)
Summary of the method: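 Turbidity was read spectrophotometrically at 490, 535 and 650 nm, and the endpoint is the concentration where OD passes 0.01, as the mean of the three wavelengths. Compounds came from 25 mM DMSO stock in 1:1 serial dilutions, added to HEPES pH 7.4, SIF pH 6.8 or 4.5 (0.05M NaH2PO4), or SGF pH 1.5 (0.5M NaCl).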

Flt-3 kinase = Flt-3 kinase (Homo sapiens (Human), UniProt P36888); test: Flt-3 kinase biochemical activity assay (AlphaScreen, biotin-(E4Y)10 phosphorylation); conditions: 100 μM ATP
Sequence of Flt-3 kinase (P36888 27-993): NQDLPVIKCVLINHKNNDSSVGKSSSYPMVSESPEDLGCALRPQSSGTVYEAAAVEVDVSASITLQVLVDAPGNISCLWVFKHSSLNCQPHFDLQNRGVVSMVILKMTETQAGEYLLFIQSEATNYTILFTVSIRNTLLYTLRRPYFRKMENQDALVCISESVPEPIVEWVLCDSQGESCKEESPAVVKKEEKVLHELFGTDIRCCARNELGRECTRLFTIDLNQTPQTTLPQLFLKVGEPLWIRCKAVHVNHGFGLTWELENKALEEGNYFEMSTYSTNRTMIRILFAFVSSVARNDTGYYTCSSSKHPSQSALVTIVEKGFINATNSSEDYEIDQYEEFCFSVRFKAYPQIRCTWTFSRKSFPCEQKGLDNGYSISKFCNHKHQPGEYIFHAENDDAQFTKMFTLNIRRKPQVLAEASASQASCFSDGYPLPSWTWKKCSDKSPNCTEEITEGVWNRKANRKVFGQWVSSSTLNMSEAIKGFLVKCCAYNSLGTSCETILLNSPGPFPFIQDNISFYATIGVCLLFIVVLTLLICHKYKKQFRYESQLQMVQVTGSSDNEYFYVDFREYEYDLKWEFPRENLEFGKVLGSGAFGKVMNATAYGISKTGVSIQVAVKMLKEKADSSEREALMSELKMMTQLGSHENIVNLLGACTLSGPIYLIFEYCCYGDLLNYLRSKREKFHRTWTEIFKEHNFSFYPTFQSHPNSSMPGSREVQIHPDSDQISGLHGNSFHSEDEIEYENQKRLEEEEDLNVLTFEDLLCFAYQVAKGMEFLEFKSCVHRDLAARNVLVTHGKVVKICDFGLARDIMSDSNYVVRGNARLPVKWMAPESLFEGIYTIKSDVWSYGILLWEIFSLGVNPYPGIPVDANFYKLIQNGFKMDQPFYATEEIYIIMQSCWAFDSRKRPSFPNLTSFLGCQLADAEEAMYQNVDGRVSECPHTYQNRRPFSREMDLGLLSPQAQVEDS
Protocol: In one assay the biochemical activity IC50 values are determined with respect to inhibition of Flt-3 kinase activity, where inhibition of phosphorylation of a peptide substrate is measured as a function of compound concentration. Compounds to be tested, dissolved in DMSO (1 μL), are added to a white 384-well plate (Costar #3705). Working stocks of Flt-3 kinase (Invitrogen), biotin-(E4Y)10 substrate (Upstate Biotech, Cat#12-440), and ATP (Sigma, Cat#A-3377) are prepared in 25 mM Hepes pH 7.5, 5 mM MgCl2, 5 mM MnCl2, 1 mM DTT, and 0.01% Tween-20. All components are added to the 384-well plate for a final concentration of 1 ng/well Flt-3, 30 nM biotin-(E4Y)10 and 100 μM ATP in a volume of 20 μL. Each sample is at 5% DMSO. The plate is then incubated for 1 hour at room temperature. Just before use, working stocks of donor and acceptor beads from the AlphaScreen PY20 Detection Kit (PerkinElmer, Cat#676601M) are prepared in 25 mM Hepes pH 7.5, pH 7.4, 100 mM EDTA. 0.3% BSA. To stop the reaction, the plate is uncovered in the dark and 5 μL of Donor Beads solution (Streptavidin beads) is added to each well. The plate is incubated at room temperature for 20 minutes. Five microliters of Acceptor Beads solution (PY20 coated beads) are then added to each well. The final concentration of each bead is 10 μg/mL. The plates are incubated at room temperature for 60 minutes. Fluorescence signal is recorded on the Envision reader. Phosphorylated substrate results in binding of the PY20 antibody and association of the donor and acceptor beads such that signal correlates with kinase activity. The signal vs. compound concentration is used to determine the IC50.

Row | Structure (SMILES) | turbidity threshold (L, M, H) 1.4 [1] | turbidity threshold (L, M, H) 4.5 [1] | turbidity threshold (L, M, H) 6.8 [1] | turbidity threshold (L, M, H) 7.4 [1] | IC50 (Flt-3 kinase) [µM]
1 | Clc1cnc2[nH]cc(Cc3ccc(NCc4ccc(Cl)nc4)nc3)c2c1 [Compound P-2003] | H (high solubility if the threshold concentration is >250 μM) | M (moderate solubility if the threshold concentration is 31.3 μM to 250 μM) | L (low solubility if the threshold concentration is <31.3 μM) | L (low solubility if the threshold concentration is <31.3 μM) | < 0.1
2 | Fc1ccc(CNc2ccc(Cc3c[nH]c4ncc(Cl)cc34)cn2)cn1 [Compound P-2004, [5-(5-chloro-1H-pyrrolo[2,3-b]pyridin-3-ylmethyl)-pyridin-2-yl]-(6-fluoro-pyridin-3-ylmethyl)-amine] | H (high solubility if the threshold concentration is >250 μM) | M (moderate solubility if the threshold concentration is 31.3 μM to 250 μM) | M (moderate solubility if the threshold concentration is 31.3 μM to 250 μM) | M (moderate solubility if the threshold concentration is 31.3 μM to 250 μM) | < 0.1
3 | Cc1cnc2[nH]cc(Cc3ccc(NCc4ccc(C(F)(F)F)nc4)nc3)c2c1 [Compound P-2019, [5-(5-Methyl-1H-pyrrolo[2,3-b]pyridin-3-ylmethyl)-pyridin-2-yl]-(6-trifluoromethyl-pyridin-3-ylmethyl)-amine] | H (high solubility if the threshold concentration is >250 μM) | M (moderate solubility if the threshold concentration is 31.3 μM to 250 μM) | M (moderate solubility if the threshold concentration is 31.3 μM to 250 μM) | L (low solubility if the threshold concentration is <31.3 μM) | < 0.1
4 | COc1ccc(CNc2ccc(Cc3c[nH]c4ncc(C)cc34)c(F)n2)cn1 [Compound P-2029, [6-Fluoro-5-(5-methyl-1H-pyrrolo[2,3-b]pyridin-3-ylmethyl)-pyridin-2-yl]-(6-methoxy-pyridin-3-ylmethyl)-amine] | H (high solubility if the threshold concentration is >250 μM) | M (moderate solubility if the threshold concentration is 31.3 μM to 250 μM) | M (moderate solubility if the threshold concentration is 31.3 μM to 250 μM) | M (moderate solubility if the threshold concentration is 31.3 μM to 250 μM) | < 0.1
5 | COc1cnc2[nH]cc(Cc3ccc(NCc4ccc(OC)nc4)nc3F)c2c1 [Compound P-2030, [6-Fluoro-5-(5-methoxy-1H-pyrrolo[2,3-b]pyridin-3-ylmethyl)-pyridin-2-yl]-(6-methoxy-pyridin-3-ylmethyl)-amine] | H (high solubility if the threshold concentration is >250 μM) | M (moderate solubility if the threshold concentration is 31.3 μM to 250 μM) | M (moderate solubility if the threshold concentration is 31.3 μM to 250 μM) | L (low solubility if the threshold concentration is <31.3 μM) | < 0.1
6 | Cc1cnc2[nH]cc(Cc3ccc(NCc4ccc(C(F)(F)F)nc4)nc3F)c2c1 [Compound P-2031, [6-Fluoro-5-(5-methyl-1H-pyrrolo[2,3-b]pyridin-3-ylmethyl)-pyridin-2-yl]-(6-trifluoromethyl-pyridin-3-ylmethyl)-amine] | M (moderate solubility if the threshold concentration is 31.3 μM to 250 μM) | L (low solubility if the threshold concentration is <31.3 μM) | L (low solubility if the threshold concentration is <31.3 μM) | L (low solubility if the threshold concentration is <31.3 μM) | < 0.1
7 | COc1cnc2[nH]cc(Cc3ccc(NCc4ccccc4Cl)nc3F)c2c1 [Compound P-2034, (2-chloro-benzyl)-[6-fluoro-5-(5-methoxy-1H-pyrrolo[2,3-b]pyridin-3-ylmethyl)-pyridin-2-yl]-amine] |  |  |  |  | < 0.1
8 | Fc1nc(NCc2ccc(Cl)cn2)ccc1Cc1c[nH]c2ncccc12 [Compound P-2044, (5-Chloro-pyridin-2-ylmethyl)-[6-fluoro-5-(1H-pyrrolo[2,3-b]pyridin-3-ylmethyl)-pyridin-2-yl]-amine] |  |  |  |  | > 0.1
9 | COc1ncc(CNc2ncc(Cc3c[nH]c4ncc(C)cc34)cn2)cc1F [Compound P-2073, (5-Fluoro-6-methoxy-pyridin-3-ylmethyl)-[5-(5-methyl-1H-pyrrolo[2,3-b]pyridin-3-ylmethyl)-pyrimidin-2-yl]-amine] | H (high solubility if the threshold concentration is >250 μM) | M (moderate solubility if the threshold concentration is 31.3 μM to 250 μM) | M (moderate solubility if the threshold concentration is 31.3 μM to 250 μM) | M (moderate solubility if the threshold concentration is 31.3 μM to 250 μM) | 
10 | Cc1cc(CNc2ccc(Cc3c[nH]c4ncc(Cl)cc34)c(F)n2)ccn1 [Compound P-2075, [5-(5-Chloro-1H-pyrrolo[2,3-b]pyridin-3-ylmethyl)-6-fluoro-pyridin-2-yl]-(2-methyl-pyridin-4-ylmethyl)-amine] | H (high solubility if the threshold concentration is >250 μM) | M (moderate solubility if the threshold concentration is 31.3 μM to 250 μM) | L (low solubility if the threshold concentration is <31.3 μM) | M (moderate solubility if the threshold concentration is 31.3 μM to 250 μM) | 
11 | Cc1cnc2[nH]cc(Cc3cnc(NCc4ccc(C(F)(F)F)nc4)c(F)c3)c2c1 [Compound P-2146, [3-Fluoro-5-(5-methyl-1H-pyrrolo[2,3-b]pyridin-3-ylmethyl)-pyridin-2-yl]-(6-trifluoromethyl-pyridin-3-ylmethyl)-amine] | H (high solubility if the threshold concentration is >250 μM) | M (moderate solubility if the threshold concentration is 31.3 μM to 250 μM) | M (moderate solubility if the threshold concentration is 31.3 μM to 250 μM) | L (low solubility if the threshold concentration is <31.3 μM) | 
12 | Fc1cc(Cc2c[nH]c3ncc(Cl)cc23)cnc1NCc1ccc(C(F)(F)F)nc1 [Compound P-2172, [5-(5-Chloro-1H-pyrrolo[2,3-b]pyridin-3-ylmethyl)-3-fluoro-pyridin-2-yl]-(6-trifluoromethyl-pyridin-3-ylmethyl)-amine] | H (high solubility if the threshold concentration is >250 μM) | L (low solubility if the threshold concentration is <31.3 μM) | L (low solubility if the threshold concentration is <31.3 μM) | L (low solubility if the threshold concentration is <31.3 μM) | 
13 | CCS(=O)(=O)Nc1ccccc1CNc1ccc(Cc2c[nH]c3ncc(C)cc23)c(F)n1 [Compound P-2198, Ethanesulfonic acid (2-{[6-fluoro-5-(5-methyl-1H-pyrrolo[2,3-b]pyridin-3-ylmethyl)-pyridin-2-ylamino]-methyl}-phenyl)-amide] | M (moderate solubility if the threshold concentration is 31.3 μM to 250 μM) | L (low solubility if the threshold concentration is <31.3 μM) | L (low solubility if the threshold concentration is <31.3 μM) | L (low solubility if the threshold concentration is <31.3 μM) | 
